This is an account of results in patent US6784208B2, “Method for preventing and treating visceral pain and gastrointestinal disorders” (Warner-Lambert Company, priority 2001, dated 2004).

What is called Inhibition is the relative decrease from the control value, in per cent. A word on the ED50: it is the dose at which the effect has come halfway, by size or by number of responders.

Where two headings read alike, the source gives them in different places.

Assay [1] deals with TNBS-induced chronic visceral allodynia. The settings on record: cited from earlier work.
The test system is the same in assay [2]. The assay can be described thus: TNBS-induced chronic visceral allodynia in rats (colonic distension). In kind it is in vivo, rat. The conditions noted are these: for Inhibition at 1 h (%) of the TNBS-induced decrease in the pain threshold: 1 h before colonic distension, rats. The protocol: In this experimental model of colonic distension in awake rats, previous injection of TNBS into the proximal colon had lowered the visceral pain threshold.
Male Sprague-Dawley rats weighing 340-400 g are used. The animals are housed 3 per cage in a regulated environment (20±1° C., 50±5% humidity, with light 8:00 am to 8:00 pm). At day 0, under anesthesia (ketamine 80 mg/kg ip.; acepromazine 12 mg/kg ip.), the injection of TNBS (50 mg/kg in ethanol 30%), or saline (1.5 ml/kg) for control rats, is performed into the proximal colon wall (1 cm from the cecum). After the surgery, animals are individually housed in polypropylene cages and kept in a regulated environment (20±1° C., 50±5% humidity, with light 8:00 a.m. to 8:00 p.m.) during 7 days. At day 7 after TNBS administration, a balloon (5-6 cm length) is inserted by anus, and kept in position (tip of balloon 5 cm from the anus) by taping the catheter to the base of the tail. Oral administration of gabapentin or the compound of formula Ia is performed 1 h before the colonic distension cycle: the balloon is progressively inflated by steps of 5 mm Hg (0.667 kPa), from 0 to 75 mm Hg, each step of inflation lasting 30 s. Each cycle of colonic distension is controlled by a standard barostat. The threshold (mm Hg) corresponds to the pressure which produced the first abdominal contraction, and the cycle of distension is then discontinued. The colonic threshold is determined after performance of four cycles of distension on the same animal.
Data is analyzed by comparing test compound-treated groups with a TNBS only-treated group and the control group. Mean and SEM are calculated for each group. The antiallodynic activity of each oral dose of the test compound is calculated as follows: [formula]
where A=mean threshold of the test compound-treated group,
T=mean threshold of the TNBS only-treated group,
C=mean threshold of the control group.
The results measured in the test compound-treated groups are expressed in % inhibition of the TNBS-induced decrease in the pain threshold. Statistical significance between each group was determined by using a one-way ANOVA followed by Student's unpaired t-test; differences were considered statistically significant at p<0.05.

Assay [3] deals with LPS-induced rectal hypersensitivity. The experiment in a line: LPS-induced rectal hypersensitivity in rats (rectal distension, abdominal contractions). Format: in vivo, rat. The conditions noted are these: for inhibition of the number of abdominal contractions induced by rectal distension: distension at 0.4 ml, LPS treated rats. The protocol: Animals are surgically prepared for electromyography: rats are anaesthetized by intraperitoneal injection of acepromazine (0.6 mg/kg) and ketamine (120 mg/kg). […] Electrodes are exteriorized on the back of the neck and protected by a glass tube attached to the skin. Animals are individually housed in polypropylene cages and kept in a temperature-controlled room (21° C.). Food (UAR pellets, Epinay, France) and water are provided ad libitum.
Electromyographic recordings begin five days after surgery. The electrical activity of abdominal striated muscles is recorded with an electroencephalograph machine (Mini VIII Alvar, Paris, France) using a short time constant (0.03 s) to remove low-frequency signals (<3 Hz) and a paper speed of 3.6 cm/min. Spike bursts are recorded as an index of abdominal contractions.
Distension procedure: Rats are placed in plastic tunnels (6 cm diameter×25 cm long), where they cannot move, escape, or turn around, in order to prevent damage to the balloon. Animals are accustomed to this procedure for four days before rectal distension in order to minimize stress reactions during experiments. The balloon used for distension is an arterial embolectomy catheter (Fogarty, Edwards Laboratories Inc.). Rectal distension is performed by insertion of the balloon (2 mm diameter×2 cm long) into the rectum, at 1 cm from the anus, and catheter is fixed at the base of the tail. It is inflated progressively with tepid water by steps of 0.4 ml, from 0 to 1.2 ml, each step of inflation lasting 5 min. To detect possible leakage, the volume of water introduced in the balloon is checked by complete removal with a syringe at the end of the distension period.
Experimental protocol: Rats are injected i.p. with LPS (1 mg/kg (Escherichia coli, serotype O111:B4) Sigma-Aldrich chemical Co., St Louis, Mo.) or its vehicle, and rectal distension with concomitant electromyographic recording of abdominal contractions is performed 9 and 12 h after this administration. To determine the antinociceptive properties of gabapentin and the compound of formula Ia in hyperalgesia conditions, gabapentin (10 and 30 mg/kg) and the compound of formula Ia (0.01, 0.03 and 0.1 mg/kg) or the vehicle (NaCl 0.9% 0.3 ml/rat) are administered per os 1 h before rectal distension but preceded (12 h) by injection of LPS (1 mg/kg i.p.).
Drugs: All compounds were dissolved in sterile NaCl (0.9% isotonic saline) immediately before use.
Statistics: Statistical analysis of the number of abdominal contractions occurring during each period of rectal distension is performed by one-way ANOVA followed by parametric Student's unpaired t test.

Regarding `CN1CC[C@]23c4c5ccc(O)c4O[C@H]2[C@@H](O)C=C[C@H]3[C@H]1C5` [morphine], the “effect on colonic threshold” value in assay [1] (s.c., both TNBS-treated animals and controls) is recorded as “increased the colonic threshold”.

On to `NC[C@]1(CC(=O)O)C[C@H]2CC[C@H]2C1` [compound of formula Ia, (1α,3α,5α)-3-aminomethyl-bicyclo[3.2.0]heptane-3-acetic acid], for which the “Inhibition at 1 h (%) of the TNBS-induced decrease in the pain threshold” value in assay [2] (3 mg/kg p.o.) is listed as 21.7 ± 3.0%; in assay [2] (10 mg/kg p.o.) it was 34.2 ± 5.7%; in assay [2] (30 mg/kg p.o.), 58.8 ± 6.2%; in assay [2] (60 mg/kg p.o.), 90.4 ± 9.8%. Besides, the ED50 in assay [2] (Rattus norvegicus, po, TNBS-treated rats, read-out: median effective dose (ED50), antiallodynic activity) amounted to 14.4 mg/kg; in assay [3] (Rattus norvegicus, po, distension at 0.4 ml after LPS treatment, read-out: ED50, inhibition of abdominal contractions induced by rectal distension), 0.037 mg/kg. In addition, the “effect on the number of abdominal contractions induced by rectal distension” value in assay [3] (0.01, 0.03 and 0.1 mg/kg po, distension at 0.4 ml after LPS treatment (FIG. 1)) is “inhibits in a dose-related manner”. Besides, in assay [3] (LPS-induced rectal hypersensitivity model, p.o.), the “fold more potent than gabapentin” value is “about 500 fold”.

As for “1-(aminomethyl)cyclohexane acetic acid [gabapentin]”, the “Inhibition at 1 h (%) of the TNBS-induced decrease in the pain threshold” value in assay [2] (100 mg/kg p.o.) is given as 14.7 ± 5.1%; in assay [2] (300 mg/kg p.o.) it was 48.6 ± 13.3%; in assay [2] (500 mg/kg p.o.), 64.9 ± 10.5%; in assay [2] (1000 mg/kg p.o.) it was 75.2 ± 6.1%. Moreover, the “median effective dose (ED50), antiallodynic activity” value in assay [2] (p.o., TNBS-treated rats) turned out to be 321 mg/kg. Moreover, the “inhibition of the number of abdominal contractions induced by rectal distension” value was determined as 24.9% in assay [3] (10 mg/kg p.o., not significant) and 85.3% in assay [3] (30 mg/kg p.o.). In addition, the “effect on TNBS-induced colonic hypersensitivity” value in assay [1] (model of chronic allodynia (Diop et al. 1998)) is given as “suppress”. In addition, the “effect on colonic threshold” value in assay [1] (s.c. route, control conditions) is on record as “not to modify the colonic threshold”.
